Laboratory results: patent publication US20080027145A1, “Therapeutic Molecules and Methods for Generating and/or Selecting Same” (priority 2004, published 2008)

Key:
[1] = target: T1, Bcl-w ΔC29 (Homo sapiens, UniProt Q92843, A128E/C29S); assay: Direct binding to immobilized BH3 peptide, Biacore biosensor; conditions: BadBH3 or NoxaBH3 immobilized chip
T1 construct: human Bcl-w (Acc. no. NP_004041; residues 1-164; C29S A128E); made in house
T1 sequence (Q92843 1-164 C29S/A128E): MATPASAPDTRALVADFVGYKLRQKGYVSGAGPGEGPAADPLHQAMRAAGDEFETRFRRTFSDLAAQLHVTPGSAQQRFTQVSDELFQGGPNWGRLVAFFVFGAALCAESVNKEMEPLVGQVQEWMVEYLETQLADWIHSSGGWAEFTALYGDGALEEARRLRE
Protocol: (§1) Recombinant human Bcl-xL ΔC24, mouse Mcl-1 ΔN151 ΔC23 and mouse A1 ΔC20 were expressed as GST fusion proteins and cleaved off Glutathione Sepharose columns as described (Day et al., Cell Death Differ 6:1125-1132, 1999; Hinds et al., EMBO J 22:1497-1507, 2003).
(§2) Affinity measurements were performed at room temperature on a Biacore 3000 biosensor (Biacore) with HBS (10 mM HEPES pH 7.2, 150 mM NaCl, 3.4 mM EDTA, 0.005% Tween 20) as the running buffer. Mouse 26-mer ^wtBimBH3, ^4EBimBH3 mutant, BadBH3, NoxaBH3 or control irrelevant peptides were immobilized onto CM5 sensor chips using amine-coupling chemistry (Wilson-Annan et al., Supra). To assess the binding affinities of pro-survival Bcl-2-like proteins for BimBH3 directly, the proteins were directly injected into the sensor chip at 20 μl/min. Residual bound proteins were desorbed with 50 mM NaOH or 6 M GuHCl (pH 7.2), followed by two washes with running buffer. Binding kinetics were derived from sensorgrams, following subtraction of baseline responses, using BIA evaluation software (version 3, Biacore) (Wilson-Annan et al., Supra).
(§3) The binding constants of the pro-survival molecules for ^wtBimBH3, immobilized on sensor chip, were determined using biosensor experiments as described in Hinds et al., Supra; Wilson-Annan et al., Supra.

[2] = target: T2, Mcl-1 ΔN151 ΔC23 (Mus musculus, UniProt P97287); assay: as above; conditions: BadBH3 or NoxaBH3 immobilized chip
T2 construct: mouse Mcl-1 (Acc. no. NP_031588; residues 152-308); GST (N, cleaved yes); made in house
Protocol: as §1, §2, §3

[3] = target: T3, Bcl-xL ΔC24 (Homo sapiens, UniProt Q07817); assay: as above; conditions: BadBH3 or NoxaBH3 immobilized chip
T3 construct: Human Bcl-xL (Acc. no. NP_612815; residues 1-209); GST (N, cleaved yes); made in house
Protocol: as §1, §2, §3

[4] = target: T4, Bcl-2 ΔC22 (Homo sapiens, UniProt P10415); assay: as above; conditions: BadBH3 or NoxaBH3 immobilized chip
T4 construct: Human Bcl-2 (Acc. no. NP_000624; residues 1-217); made in house
Protocol: as §1, §2, §3

[5] = target: T5, A1 ΔC20 (Mus musculus, UniProt Q07440); assay: as above; conditions: BadBH3 or NoxaBH3 immobilized chip
T5 construct: mouse A1 (Acc. no. NP_033872; residues 1-152); GST (N, cleaved yes); made in house
T5 sequence (Q07440 1-152): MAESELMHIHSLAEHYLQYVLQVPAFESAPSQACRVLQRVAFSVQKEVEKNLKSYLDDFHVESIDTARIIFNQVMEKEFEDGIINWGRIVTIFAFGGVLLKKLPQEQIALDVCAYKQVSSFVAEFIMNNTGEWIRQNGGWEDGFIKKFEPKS
Protocol: as §1, §2, §3

[6] = target: T6, Mcl-1 (Mus musculus, UniProt P97287); assay: Solution competition assay (competition with immobilized wtBimBH3, biosensor); assay type: binding; conditions: Mcl-1
T6 construct: mouse Mcl-1 (Acc. no. NP_031588; residues 152-308); GST (N, cleaved yes); made in house
Protocol: (§4) The relative affinities of BH3 peptides for pro-survival Bcl-2 proteins were assessed by comparing their abilities to compete with immobilized ^wtBimBH3 peptide for binding to Bcl-2-like proteins (Wilson-Annan et al., Supra). A fixed sub-saturating amount (10 nM) of a pro-survival Bcl-2 protein was incubated with varying amounts of competitor BH3 peptide in HBS for >2 hr on ice. The mixtures were then injected over a sensor chip containing a channel bearing mouse ^wtBimBH3 and a control channel with mouse ^4EBimBH3 immobilized. The baseline response (control channel) was subtracted to obtain the absolute binding response. Taking the response for the pro-survival protein alone as the maximal response (100%), the relative residual binding (%) in the presence of increasing amounts of competitor peptides at a given injection time point (430 s) was then calculated. […] Theoretically, IC50=[A]/2+KD, where [A] is the analyte concentration.
(§5) Some of recombinant proteins (Bcl-2, Bcl-xL, A1) studied contain cysteine residues but the behavior of Bcl-2 or Bcl-xL was not affected by dithiothreitol (DTT).
(§6) To assess if other BH3 peptides bind pro-survival proteins similarly, we directly compared their binding affinities in solution using a competitive binding assay. In such assays, the quality and absolute quantity of target proteins are less critical than in direct binding, and solution binding precludes the steric hindrance encountered with some immobilized peptides. FIG. 1C illustrates the approach: pre-incubation of Bcl-xL in solution with increasing amounts of BikBH3 reduced its binding to ^wtBimBH3 (FIG. 1D). From the attenuation in binding, the IC50 (competitor peptide concentration that halves binding) of BikBH3 can be calculated (FIG. 1E). As the IC50 values reflect relative binding affinities (see Experimental Procedures), we used this assay to compare the binding affinities of eight BH3 peptides (Table 3) to the five pro-survival proteins. […] Their binding properties fell into several classes (FIG. 2B and FIG. 4). […] Contrary to the prevailing view, the pro-survival proteins also had unique patterns for BH3 binding: Bcl-xL behaved like Bcl-w, with Bcl-2 more distinct, whereas Mcl-1 and A1 formed a separate group (FIG. 2B).

[7] = tested on: pro-survival proteins (Bcl-2, Bcl-xL, Bcl-w, Mcl-1, A1); assay: Solution competition assay, statements spanning several pro-survival proteins; assay type: binding, human and mouse; conditions: Bcl-2, Bcl-xL, Bcl-w, Mcl-1, A1
Protocol: as §4, §5, §6

T4 sequence (P10415 1-217): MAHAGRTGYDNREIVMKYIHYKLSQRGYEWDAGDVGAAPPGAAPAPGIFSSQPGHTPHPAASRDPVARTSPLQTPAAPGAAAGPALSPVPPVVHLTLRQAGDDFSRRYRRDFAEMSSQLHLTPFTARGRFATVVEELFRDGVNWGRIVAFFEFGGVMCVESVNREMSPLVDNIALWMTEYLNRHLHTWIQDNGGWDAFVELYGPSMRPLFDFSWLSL
T6 sequence (P97287 152-308): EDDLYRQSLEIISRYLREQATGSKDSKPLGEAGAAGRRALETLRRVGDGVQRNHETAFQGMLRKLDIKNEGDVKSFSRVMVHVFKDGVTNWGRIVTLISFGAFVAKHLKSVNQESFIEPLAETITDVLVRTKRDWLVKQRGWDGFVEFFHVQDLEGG
T2 sequence (P97287 152-308): as above
T3 sequence (Q07817 1-209): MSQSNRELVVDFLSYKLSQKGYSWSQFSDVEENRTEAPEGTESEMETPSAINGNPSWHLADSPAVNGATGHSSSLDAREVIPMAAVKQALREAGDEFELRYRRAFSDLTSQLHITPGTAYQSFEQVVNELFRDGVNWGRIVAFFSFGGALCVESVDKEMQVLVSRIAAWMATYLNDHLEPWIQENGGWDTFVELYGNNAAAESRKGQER

binding of Bcl-w to immobilized peptide [1]: avidly | binding of Mcl-1 to immobilized peptide [2]: no affinity | binding of Bcl-xL to immobilized peptide [3]: avidly | binding of Bcl-2 to immobilized peptide [4]: avidly | binding of A1 to immobilized peptide [5]: no affinity | IC50 [6]: > 100 µM
SMILES: CSCC[C@H](NC(=O)[C@H](CCCNC(=N)N)NC(=O)[C@H](CCCNC(=N)N)NC(=O)[C@H](CC(C)C)NC(=O)[C@H](CCC(=O)O)NC(=O)[C@H](CCCNC(=N)N)NC(=O)CNC(=O)[C@H](Cc1ccc(O)cc1)NC(=O)[C@H](CCCNC(=N)N)NC(=O)[C@H](CCC(N)=O)NC(=O)[C@H](C)NC(=O)[C@H](C)NC(=O)[C@H](Cc1c[nH]c2ccccc12)NC(=O)[C@H](CC(C)C)NC(=O)[C@@H](N)CC(N)=O)C(=O)N[C@@H](CO)C(=O)N[C@@H](CC(=O)O)C(=O)N[C@@H](CCC(=O)O)C(=O)N[C@@H](Cc1ccccc1)C(=O)N[C@H](C(=O)N[C@@H](CC(=O)O)C(=O)N[C@@H](CO)C(=O)N[C@@H](Cc1ccccc1)C(=O)N[C@@H](CCCCN)C(=O)N[C@@H](CCCCN)C(=O)NCC(=O)O)C(C)C [BadBH3]
binding preference among pro-survival proteins [7]: strongly preferred Bcl-2, BCl-xL and Bcl-w
